Measured values: patent US10308617B2, “Triazole benzamide derivatives and the compositions and methods of treatment regarding the same” (An2H Discovery Limited, priority 2016, dated 2019)

molecular target: T1, Parkin ligase (Homo sapiens, UniProt O60260); experiment: Activity-Based Probe Assay using an Ubiquitin vinyl sulfone probe (TR-FRET); assay type: biochemical; conditions: Parkin activation, HA-Ub-VS probe, heat activated Parkin; read-out: Probe Assay EC50 (μM) [Example 2]
T1 sequence (O60260 1-465): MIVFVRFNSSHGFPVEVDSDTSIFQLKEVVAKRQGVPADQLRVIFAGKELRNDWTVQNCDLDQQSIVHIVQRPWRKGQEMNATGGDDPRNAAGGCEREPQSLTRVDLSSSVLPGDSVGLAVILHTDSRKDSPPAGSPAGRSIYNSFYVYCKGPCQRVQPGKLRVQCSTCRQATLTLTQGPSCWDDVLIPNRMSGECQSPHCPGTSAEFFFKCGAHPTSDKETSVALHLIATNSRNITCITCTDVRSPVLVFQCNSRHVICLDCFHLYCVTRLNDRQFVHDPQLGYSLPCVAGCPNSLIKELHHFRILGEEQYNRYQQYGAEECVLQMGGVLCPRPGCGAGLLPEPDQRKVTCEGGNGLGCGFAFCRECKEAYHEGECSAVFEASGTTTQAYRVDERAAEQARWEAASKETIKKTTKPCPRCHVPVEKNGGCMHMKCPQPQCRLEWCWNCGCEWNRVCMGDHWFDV
Method: An Ubiquitin vinyl sulfone probe can be used that irreversibly binds to the active site cysteine of Parkin ligase. Covalent attachment of the probe to the Parkin can be monitored by TR-FRET. Candidate activator compounds can be identified by increasing the activity of Parkin ligase due to an increase in TR-FRET signal. Screening for activating compounds can be distinguished from the controls as follows: • 100% activation signal=Heat activated Parkin+100 nM control activator in DMSO. • 0% activation signal=Heat activated Parkin+DMSO only. • Parkin activators can be identified by an increase of the 0% activation signal TR-FRET signal.
• Assay Plate: White 384 well plate (Corning 3572) • Enzyme: Parkin-His tagged 203 μM (10.5 mg/ml) • Probe: Ubiquitin vinyl-sulfone (HA-Ub-VS Boston Biochem U-212) • DMSO: DMSO (Sigma cat # D4540-100ML) • Reaction Buffer: 50 mM HEPES (pH 8.5), 150 mM NaCl, 0.01% Tween 20, 0.1% BSA • Detection Buffer: 50 mM HEPES (pH 8.5), 150 mM NaCl, 0.01% Tween 20, 0.1% BSA, 800 mM KF • Detection Reagent A: 2.6 nM Anti-6HIS-Eu cryptate and 40 nM Anti-HA-XL665 in detection buffer • Eu cryptate: Anti-6HIS-Eu cryptate (CisBio 61HISKLA) • XL665: Anti-HA-XL665 (CisBio 610HAXLA) Enzyme Reaction (15 min pre incubation Parkin with activator only) • Parkin: 40 nM • HA-Ub-VS Probe: 70 nM • Activator/DMSO: 2× Activator/2% DMSO • Reaction time: 60 minutes • Temperature: 22° C. • Total volume: 10 μl reaction Detection Reaction • Take 10 μl of Enzyme Reaction above and add 10 μl detection Reagent A under the following conditions: • Reaction time: 60 minutes • Temperature: 22° C. • Total volume: 20 μl
Assay procedure (Using HP D-300 compound dispenser and Bravo for the operation): • 1) Heat activate Parkin in reaction buffer (500 μl/1.5 ml tube: Eppendorf Thermomixer 5 minutes, 400 rpm at 58° C. and put on ice until needed). • 2) Load assay plate wells with 4.8 μl 84.5 nM Parkin in reaction buffer by use of Bravo. • 3) Deliver 0.2 μl 200× activator candidates in DMSO by use of HP D-300 compound dispenser. Highest 200× concentration=[…] and then twofold dilutions. • 4) Spin 1000 rpm, 2 minutes, at room temp. • 5) Incubate plate for 15 minutes at room temp. • 6) Add 5 μl 140 nM HA-Ub-VS Probe in reaction buffer by use of Bravo. • 7) Spin 1000 rpm, 2 minutes, at room temp. • 8) Incubate plate for 60 minutes at room temp. • 9) Add 10 μl 2.6 nM Anti-6HIS-Eu cryptate and 40 nM Anti-HA-XL665 in detection buffer. • 10) Spin 1000 rpm, 2 minutes, at room temp. • 11) Incubate plate for 60 minutes at room temp. • 12) Read plates on Perkin Elmer Envision instrument with the following parameters: • LANCE dual laser protocol loaded into the Envision® software • Top Mirror: LANCE/DELFIA Duel/Bias (Bar code 446) • Emission Filter: APC 665 EM (Bar code 205) • 2nd Emission Filter: Europium 615 EM (Bar code 203) • Read 655 nm (channel 1) and 615 nm (channel 2) wavelengths on Envision®
Data Analysis: The Data can be read in CSV files. There are two tables in those CSV files, which are the values of 655 nm (channel 1) and 615 nm (channel 2) wavelengths respectively. The data is converted to an HTRF Ratio=(Channel 1/Channel 2)*10,000
The average of all the 0 uM controls (DMSO only)=BKGD (Background—0% activation). Subtract BKGD from each HTRF Ratio value=HTRF-BKGD. The average of all the […] 100 nM control activator in DMSO controls=Max (100% activation). The following equation is then used to calculate % Activation for each well/candidate as follows: % Activation=(HTRF-BKGD/Max)*100.
Graphpad Prisim was used with Transform X values: X=Log(X) and nonlinear regression (dose-response-stimulation): Log(agonist) vs Response—variable slope (four parameters) with constrains set to Bottom=0 and Top=100.
The Activity-Based Probe Assay was performed with various compounds in Tables 1-3.

| SMILES | EC50 [µM] |
| --- | --- |
| O=C(Nc1nc(NC(=O)c2cccc([N+](=O)[O-])c2)n(-c2ccccc2)n1)c1ccccc1 [Compound V1] | > 100 |
| O=C(Nc1nc(NC(=O)c2ccco2)n(-c2ccccc2)n1)c1ccccc1 [Compound W1] | 10.4 |
| Cc1ccccc1C(=O)Nc1nc(NC(=O)c2ccccc2C)n(C(C)C)n1 [Compound W2] | > 100 |
| O=C(Nc1nc(NC(=O)c2ccccc2)n(-c2ccc(-c3ccccc3)cc2)n1)c1ccccc1 [Compound X1] | 62 |
| Cc1ccccc1C(=O)Nc1nc(NC(=O)c2ccccc2C)n(-c2ccccn2)n1 [Compound X2] | > 100 |
| O=C(Nc1nc(NC(=O)c2ccccc2)n(-c2ccc(OC(F)(F)F)cc2)n1)c1ccccc1 [Compound Z1] | 1 |
| O=C(Nc1nc(NC(=O)c2ccc(I)cc2)n(-c2ccccc2)n1)c1ccc(I)cc1 [D] | > 100 |
| O=C(Nc1nc(Nc2ncnc3ccccc23)nn1-c1ccccc1)c1ccccc1 [I] | > 100 |
| CN(C(=O)c1ccccc1)c1nc(N(C)C(=O)c2ccccc2)n(-c2ccccc2)n1 [J] | > 100 |
| O=C(Nc1nc(-c2ccccn2)nn1-c1ccccc1)c1ccccc1 [T] | > 100 |
| CN(C(=O)c1ccccc1)c1nc(NC(=O)c2ccccc2)nn1-c1ccccc1 [V] | > 100 |
| CCN(CC)c1nc(Nc2nc(NC(=O)c3ccccc3)nn2-c2ccccc2)c2ccccc2n1 [W] | > 100 |
| CCN(CC)c1nc(Nc2nc(NC(=O)c3ccccc3)nn2-c2ccccc2)nc2ccccc12 [X] | > 100 |
| O=C(Nc1nc(Nc2ncnc3ccccc23)n(-c2ccccc2)n1)c1ccco1 [Z] | 9.1 |

Continued, values first:

| EC50 [µM] | SMILES |
| --- | --- |
| 22 | c1ccc(-n2nc(-c3ccccn3)nc2Nc2ncnc3ccccc23)cc1 [Compound U2] |
| > 100 | Cc1ccccc1C(=O)Nc1nc(C2CCOCC2)nn1-c1ccccc1 [Compound V2] |
| 2 | O=C(Nc1nc(-c2ccccn2)nn1-c1ccccc1)c1ccccc1 [Compound Y1, N-(1-phenyl-3-(pyridin-2-yl)-1H-1,2,4-triazol-5-yl)benzamide] |
| > 100 | CN(C(=O)c1ccccc1)c1nc(NC(=O)c2ccccc2)n(-c2ccccc2)n1 [G] |
| > 100 | Cc1ccccc1-n1nc(NC(=O)c2ccccc2)nc1NC(=O)c1ccccc1 [M] |
| > 100 | O=C(Nc1nc(Nc2nccc3ccccc23)n(-c2ccccc2)n1)c1ccccc1 [U] |
